In patent US20240415918A1, “Polypeptide and its use as a CCK receptor agonist/antagonist” (Centre for Regenerative Medicine & Health, Hong Kong …, priority 2021, published 2024):
*1 amine or outer side, *2 acyl side, *3 side chain or, on linkers, in order; H or OH if unused. Where a SMILES comes first, the peptide text is derived from it. [ ]: non-standard residue; d: D form. X1 = O=C([C@@]1(O)C[C@@H](O)[C@H](N[*:1])C([C@@H](O)[C@@H](O)CO)O1)[*:2]; NMeW = CN[C@@H](Cc1c[nH]c2ccccc12)C(=O)O; Phe(3-Br) = N[C@@H](Cc1cccc(Br)c1)C(=O)O; Aad = N[C@@H](CCCC(=O)O)C(=O)O; Nle = CCCC[C@H](N)C(=O)O

Target: T1, CCK-B receptors (CHO-CCK) (Homo sapiens, UniProt P32239)
T1 construct: expressed in transfected cells; host or cells: CHO (CHO-CCK model cells)
T1 sequence (P32239 1-447): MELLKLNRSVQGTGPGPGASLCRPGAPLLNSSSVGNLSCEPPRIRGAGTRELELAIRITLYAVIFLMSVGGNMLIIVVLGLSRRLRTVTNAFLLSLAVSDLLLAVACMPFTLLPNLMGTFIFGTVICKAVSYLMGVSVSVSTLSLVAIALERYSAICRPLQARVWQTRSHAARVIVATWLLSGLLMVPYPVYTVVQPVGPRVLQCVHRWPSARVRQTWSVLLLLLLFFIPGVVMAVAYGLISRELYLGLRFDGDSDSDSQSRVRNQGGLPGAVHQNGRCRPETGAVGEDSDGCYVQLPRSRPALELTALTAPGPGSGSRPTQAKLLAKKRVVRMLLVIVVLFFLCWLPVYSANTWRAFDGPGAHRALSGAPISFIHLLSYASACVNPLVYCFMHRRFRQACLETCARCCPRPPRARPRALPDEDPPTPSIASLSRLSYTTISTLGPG
Test: Calcium flux (Fluo-8) agonist test on CHO-CCK model cells
Format: cell-based
Conditions: CHO-CCK cells, Fluo-8 calcium flux; 100% control = 20 nM CCK8
Protocol: • To detect changes in intracellular calcium ion concentration after the compound acts on model cells containing CCK-B receptors (CHO-CCK).
• 1. The compound was formulated to a 10 mM mother liquor with DMSO, and then diluted into a series of 9 concentrations with a 3-fold gradient to form a 1000× stock solution.
2.1 Agonist • The compound stock solution was subjected to 200-fold dilution with HHBS buffer to form a 5× working solution.
• 1. Plate CHO-CCK cells in a 96-well plate with media containing 1% FBS, 30,000 cells/well/100 μL, and incubate overnight at 37° C. • 2. Prepare 1×Fluo-8 analysis buffer: mix 9 mL of HHBS, 1 mL of 10× Pluronic F127 Plus and 20 μL of Fluo-8 thoroughly for later use. • 3. Add Fluo-8 dye working solution to the cell plate, 100 μL/well. First incubate in a 37° C. incubator for 30 min, and then take it out and incubate at room temperature in the dark for 30 min. • 4. In the process of incubating cells, the compounds to be detected were prepared with HHBS. • 5.
The agonism/antagonism EC50 of the compound can be obtained by plotting the fitting curve with the agonism/antagonism percentage as Y-axis and the concentration of the compound as X-axis.

Work on `CSCC[C@@H]1NC(=O)[C@H](Cc2c[nH]c3ccccc23)NCCC(=O)CNC(=O)CNC(=O)CNC(=O)CNC(=O)[C@H](Cc2cccc(Br)c2)NC(=O)[C@H](CC(=O)O)NC1=O` [HT-291, cyclo(Trp-Met-Asp-Phe(3-Br)-Gly-Gly-Gly-Gly)] yielded an EC50 of 10.6 µM.

Same assay, conditions: CHO-CCK cells, compound alone; bound in μM

`CSCC[C@@H](NC(=O)[C@@H](CC(=O)O)NC(=O)[C@@H](Cc1ccccc1)NC(C)=O)C(=O)N[C@H](Cc1c[nH]c2ccccc12)C(N)=O` [HT-8, Ac-D-Phe-D-Asp-D-Met-D-Trp-NH2] (Ac-[dF][dD][dM][dW]-NH2) and `CSCC[C@H](NC(=O)[C@@H](CC(=O)O)NC(=O)[C@H](Cc1ccccc1)NC(C)=O)C(=O)N[C@@H](Cc1c[nH]c2ccccc12)C(=O)O` [HT-4, Ac-Phe-D-Asp-Met-Trp-NH2] cannot be ordered by EC50: greater than 10 µM for the first, greater than 10 µM for the second.

Work on `CSCC[C@H](NC(=O)[C@H](CC(=O)O)NC(=O)[C@H](Cc1ccccc1)NC(C)=O)C(=O)N[C@@H](Cc1c[nH]c2ccccc12)C(=O)O` [HT-2, Ac-Phe-Asp-Met-Trp-COOH] yielded an EC50 greater than 10 µM.

Same assay, conditions: compound at 1 nM, CHO-CCK cells

Point of comparison: `CC(=O)N[C@@H](CC(=O)O)C(=O)N[C@@H](Cc1ccccc1)C(N)=O` [HT-284, Ac-Asp-Phe-NH2] (Ac-Asp-Phe-NH2), “% Act-Ave @ 1 nM” value 0.01%. Against it:
- CCCC[C@H](NC(=O)[C@H](Cc1c[nH]c2ccccc12)N(C)C(=O)[C@@]1(O)C[C@@H](O)[C@H](NC(C)=O)C([C@@H](O)[C@@H](O)CO)O1)C(=O)N[C@@H](CCCC(=O)O)C(=O)N[C@@H](Cc1cccc(Br)c1)C(N)=O (stereo partly drawn) [HT-275, Trp)-Nle-Aa-Phe(3-Br)-NH2] (Ac-[X1][NMeW][Nle][Aad][Phe(3-Br)]-NH2) — higher, 62.28%

Same assay, conditions: compound at 50 nM, CHO-CCK cells

Point of comparison: `CC(=O)N[C@@H](CC(=O)O)C(=O)N[C@@H](Cc1ccccc1)C(N)=O` [HT-284, Ac-Asp-Phe-NH2] (Ac-Asp-Phe-NH2), “% Act-Ave @ 50 nM” value 0.09%. Against it:
- CCCC[C@H](NC(=O)[C@H](Cc1c[nH]c2ccccc12)N(C)C(=O)[C@@]1(O)C[C@@H](O)[C@H](NC(C)=O)C([C@@H](O)[C@@H](O)CO)O1)C(=O)N[C@@H](CCCC(=O)O)C(=O)N[C@@H](Cc1cccc(Br)c1)C(N)=O (stereo partly drawn) [HT-275, Trp)-Nle-Aa-Phe(3-Br)-NH2] (Ac-[X1][NMeW][Nle][Aad][Phe(3-Br)]-NH2) — higher, 100.24%

Same assay, conditions: compound at 10 μM; percentage of signal of 20 nM CCK8 alone

Point of comparison: `C[S+]([O-])CC[C@H](NC(=O)[C@H](N)Cc1c[nH]c2ccccc12)C(=O)N[C@@H](CC(=O)OCCNc1cccc2c(O)cccc12)C(=O)N[C@@H](Cc1ccccc1[N+](=O)[O-])C(N)=O` (stereo partly drawn) [HT-143, D-Trp-Met(O)-Asp(EDANS)-Phe(2-NO2)-NH2], “Agonistic Activity (%) at 10 μM” value 4.33%. Against it:
- COC(=O)C[C@H](NC(=O)[C@H](CC[S+](C)[O-])NC(=O)[C@H](N)Cc1c[nH]c2ccccc12)C(=O)N[C@@H](Cc1ccc(Cl)cc1)C(N)=O (stereo partly drawn) [HT-120, D-Trp-Met(O)-Asp(Ome)-Phe(4-Cl)-NH2] — lower, −1.00%
- COC(=O)C[C@H](NC(=O)[C@H](CC[S+](C)[O-])NC(=O)[C@H](N)Cc1c[nH]c2ccccc12)C(=O)N[C@@H](Cc1ccc([N+](=O)[O-])cc1)C(N)=O (stereo partly drawn) [HT-118, D-Trp-Met(O)-Asp(Ome)-Phe(4-NO2)-NH2] — lower, 0.13%
- COC(=O)C[C@H](NC(=O)[C@H](CC[S+](C)[O-])NC(=O)[C@H](N)Cc1c[nH]c2ccccc12)C(=O)N[C@@H](Cc1cc(Cl)cc(Cl)c1)C(N)=O (stereo partly drawn) [HT-123, D-Trp-Met(O)-Asp(Ome)-Phe(3,5-DiCl)-NH2] — lower, 0.84%
- COC(=O)C[C@H](NC(=O)[C@H](CCS(C)(=O)=O)NC(=O)[C@H](N)Cc1c[nH]c2ccccc12)C(=O)N[C@@H](Cc1cccc(Br)c1)C(N)=O [HT-131, D-Trp-Met(O2)-Asp(Ome)-Phe(3-Br)-NH2] — higher, 5.87%
- COC(=O)C[C@H](NC(=O)[C@H](CCS(C)(=O)=O)NC(=O)[C@H](N)Cc1c[nH]c2ccccc12)C(=O)N[C@@H](Cc1cc(F)cc(F)c1)C(N)=O [HT-141, D-Trp-Met(O2)-Asp(Ome)-Phe(3,5-DiF)-NH2] — higher, 5.60%
- COC(=O)C[C@H](NC(=O)[C@H](CCSC)NC(=O)[C@H](N)Cc1c[nH]c2ccccc12)C(=O)N[C@@H](Cc1ccccc1F)C(N)=O [HT-76, D-Trp-Met-Asp(Ome)-Phe(2-F)-NH2] — higher, 23.09%
- COC(=O)C[C@H](NC(=O)[C@H](CCSC)NC(=O)[C@H](N)Cc1c[nH]c2ccccc12)C(=O)N[C@@H](Cc1ccc(I)cc1)C(N)=O [HT-88, D-Trp-Met-Asp(Ome)-Phe(4-I)-NH2] — lower, −4.64%
- C[S+]([O-])CC[C@H](NC(=O)[C@H](N)Cc1c[nH]c2ccccc12)C(=O)N[C@@H](CC(=O)O)C(=O)N[C@@H](Cc1ccc(Br)cc1)C(N)=O (stereo partly drawn) [HT-51, D-Trp-Met(O)-Asp-Phe(4-Br)-NH2] — higher, 17.18%
- COC(=O)C[C@H](NC(=O)[C@H](CCSC)NC(=O)[C@H](N)Cc1c[nH]c2ccccc12)C(=O)N[C@@H](Cc1cc(F)c(F)c(F)c1)C(N)=O [HT-91, D-Trp-Met-Asp(Ome)-Phe(3,4,5-TriF)-NH2] — lower, 3.12%
- CSCC[C@H](NC(=O)[C@H](N)Cc1c[nH]c2ccccc12)C(=O)N[C@@H](CC(=O)OCCNc1cccc2c(O)cccc12)C(=O)N[C@@H](Cc1ccc(Cl)cc1)C(N)=O [HT-103, D-Trp-Met-Asp(EDANS)-Phe(4-Cl)-NH2] — lower, 1.03%
- COC(=O)C[C@H](NC(=O)[C@H](CCSC)NC(=O)[C@H](N)Cc1c[nH]c2ccccc12)C(=O)N[C@@H](Cc1ccccc1[N+](=O)[O-])C(N)=O [HT-75, D-Trp-Met-Asp(Ome)-Phe(2-NO2)-NH2] — lower, −0.20%
- COC(=O)C[C@H](NC(=O)[C@H](CCSC)NC(=O)[C@H](N)Cc1c[nH]c2ccccc12)C(=O)N[C@@H](Cc1ccc(Cl)cc1)C(N)=O [HT-86, D-Trp-Met-Asp(Ome)-Phe(4-Cl)-NH2] — lower, −0.94%
- C[S+]([O-])CC[C@H](NC(=O)[C@H](N)Cc1c[nH]c2ccccc12)C(=O)N[C@@H](CC(=O)O)C(=O)N[C@@H](Cc1ccc(Cl)cc1)C(N)=O (stereo partly drawn) [HT-52, D-Trp-Met(O)-Asp-Phe(4-Cl)-NH2] — higher, 15.71%
- COC(=O)C[C@H](NC(=O)[C@H](CCS(C)(=O)=O)NC(=O)[C@H](N)Cc1c[nH]c2ccccc12)C(=O)N[C@@H](Cc1cccc(F)c1)C(N)=O [HT-129, D-Trp-Met(O2)-Asp(Ome)-Phe(3-F)-NH2] — lower, −4.28%
- COC(=O)C[C@H](NC(=O)[C@H](CC[S+](C)[O-])NC(=O)[C@H](N)Cc1c[nH]c2ccccc12)C(=O)N[C@@H](Cc1cccc(F)c1)C(N)=O (stereo partly drawn) [HT-112, D-Trp-Met(O)-Asp(Ome)-Phe(3-F)-NH2] — lower, 2.89%
- COC(=O)C[C@H](NC(=O)[C@H](CCSC)NC(=O)[C@H](N)Cc1c[nH]c2ccccc12)C(=O)N[C@@H](Cc1ccc(C)cc1)C(N)=O [HT-81, D-Trp-Met-Asp(Ome)-Phe(4-Me)-NH2] — higher, 12.27%
- CS(=O)(=O)CC[C@H](NC(=O)[C@H](N)Cc1c[nH]c2ccccc12)C(=O)N[C@@H](CC(=O)O)C(=O)N[C@@H](Cc1ccc(C#N)cc1)C(N)=O [HT-66, D-Trp-Met(O2)-Asp-Phe(4-CN)-NH2] — lower, 0.33%
- [2H]c1ccc(C[C@H](NC(=O)[C@H](CC(=O)OC)NC(=O)[C@H](CCS(C)(=O)=O)NC(=O)[C@H](N)Cc2c[nH]c3ccccc23)C(N)=O)cc1 [HT-138, D-Trp-Met(O2)-Asp(Ome)-Phe(4-F)-NH2] — lower, −3.84%
- C[S+]([O-])CC[C@H](NC(=O)[C@H](N)Cc1c[nH]c2ccccc12)C(=O)N[C@@H](CC(=O)OCCNc1cccc2c(O)cccc12)C(=O)N[C@@H](Cc1cccc(Cl)c1)C(N)=O (stereo partly drawn) [HT-145, D-Trp-Met(O)t-Asp(EDANS)-Phe(3-Cl)-NH2] — lower, −5.52%
- COC(=O)C[C@H](NC(=O)[C@H](CC[S+](C)[O-])NC(=O)[C@H](N)Cc1c[nH]c2ccccc12)C(=O)N[C@@H](Cc1ccc(C)cc1)C(N)=O (stereo partly drawn) [HT-115, D-Trp-Met(O)-Asp(Ome)-Phe(4-Me)-NH2] — higher, 9.82%
- COC(=O)C[C@H](NC(=O)[C@H](CCS(C)(=O)=O)NC(=O)[C@H](N)Cc1c[nH]c2ccccc12)C(=O)N[C@@H](Cc1ccc(I)cc1)C(N)=O [HT-139, D-Trp-Met(O2)-Asp(Ome)-Phe(4-I)-NH2] — higher, 13.02%
- COC(=O)C[C@H](NC(=O)[C@H](CC[S+](C)[O-])NC(=O)[C@H](N)Cc1c[nH]c2ccccc12)C(=O)N[C@@H](Cc1cccc(Cl)c1)C(N)=O (stereo partly drawn) [HT-111, D-Trp-Met(O)-Asp(Ome)-Phe(3-Cl)-NH2] — lower, −7.28%
- COC(=O)C[C@H](NC(=O)[C@H](CCS(C)(=O)=O)NC(=O)[C@H](N)Cc1c[nH]c2ccccc12)C(=O)N[C@@H](Cc1cccc(C)c1)C(N)=O [HT-130, D-Trp-Met(O2)-Asp(Ome)-Phe(3-I)-NH2] — lower, 0.86%
- C[S+]([O-])CC[C@H](NC(=O)[C@H](N)Cc1c[nH]c2ccccc12)C(=O)N[C@@H](CC(=O)OCCNc1cccc2c(O)cccc12)C(=O)N[C@@H](Cc1ccc(N=[N+]=[N-])cc1)C(N)=O (stereo partly drawn) [HT-150, D-Trp-Met(O)-Asp(EDANS)-Phe(4-N3)-NH2] — lower, 0.81%
